Counter-ions that a name gives are not always drawn.
Key:
Assay type in all cases: in vivo
[1] = system: glyphosate-sensitive Amaranthus palmeri; test: Foliar spray pot test in greenhouse, herbicidal effect (Example 29); details: foliar spray 200 L/ha at 18 days, rated 14 days after treatment, rating 0 to 100
Method: (§1) In a plastic pot filled with soli were seeded glyphosate-resistant Amaranthus palmeri in which the number of copies of EPSPS gene had been increased (produced by Azlin Seed Service) and glyphosate-sensitive Amaranthus palmeri (produced by Azlin Seed Service). The weeds were cultivated in a greenhouse for 18 days, and then an aqueous spray liquid [i.e., a liquid prepared by diluting a predetermined amount of a trifludimoxazin formulation (i.e., an emulsifiable concentrate prepared by mixing 20 parts of trifludimoxazin with 80 parts of a liquid cocktail (i.e., a mixture of 5 parts of cyclohexanone and 1 part of SORPOL 2680X (manufactured by TOHO Chemical Industry Co., Ltd.))) with water containing a spreading agent] was sprayed uniformly from above the weeds at the amount of 200 L/ha using a sprayer. Subsequently, the weeds were allowed to grow in a greenhouse for 14 days, and then the herbicidal effect was examined. As a reference example, the same procedure was carried out, except that the trifludimoxazin formulation was replaced with a predetermined amount of a glyphosate formulation (i.e., a soluble liquid containing 660 g/L of glyphosate potassium salt: “ROUNDUP MAXLOAD” (manufactured by Nissan Chemical Corporation). The results are shown in the table 1.

[2] = system: glyphosate-resistant Amaranthus palmeri in which the number of copies of EPSPS gene had been increased; test: as above; details: foliar spray 200 L/ha at 18 days, rated 14 days after treatment, rating 0 to 100
Method: as §1

[3] = system: glyphosate-resistant weeds (Amaranthus palmeri, waterhemp, kochia, marestail, Guernsey fleabane, fleabane, goosegrass, darnel, volunteer glyphosate-tolerant …); test: Foliar treatment pot test 21 days after seeding (Example 2); details: foliage application at 6.25, 12.5, 25, 50, 100 or 150 g/ha; 200 L/ha; fourteen days after the treatment
Method: (§2) In a plastic pot filled with soil are seeded glyphosate-resistant Amaranthus palmeri in which the number of copies of EPSPS gene has been increased, glyphosate-resistant waterhemp in which the number of copies of EPSPS gene has been increased, glyphosate-resistant kochia in which the number of copies of EPSPS gene has been increased, marestail which is resistant to glyphosate by involving an ABC transporter, Guernsey fleabane which is resistant to glyphosate by involving an ABC transporter, fleabane which is resistant to glyphosate by involving an ABC transporter, glyphosate-resistant goosegrass having Thr102Ile, glyphosate-resistant goosegrass having Pro106Ser, glyphosate-resistant goosegrass having Pro106Ala, glyphosate-resistant goosegrass having Pro106Leu, glyphosate-resistant goosegrass having Thr102Ile and Pro106Ser, glyphosate-resistant darnel having Thr102Ile, glyphosate-resistant darnel having Pro106Ser, glyphosate-resistant darnel having Pro106Ala, glyphosate-resistant darnel having Pro106Leu, volunteer glyphosate-tolerant soybean, and volunteer glyphosate-tolerant cotton. The plants are cultivated in a greenhouse for 21 days, and then trifludimoxazin is applied to foliage of the plants at application rate of 6.25, 12.5, 25, 50, 100 or 150 g/ha. The amount of a liquid sprayed is 200 L/ha. Subsequently, the plants are cultivated in a greenhouse.

[4] = system: glyphosate-resistant weeds (Amaranthus palmeri, waterhemp, kochia, marestail, Guernsey fleabane, fleabane, goosegrass, darnel, volunteer glyphosate-tolerant …); test: Soil treatment pot test on day of seeding (Example 1); details: soil treatment at 6.25, 12.5, 25, 50, 100 or 150 g/ha; 200 L/ha; twenty-eight days after the treatment
Method: as §2, with “On the same day, the soil is treated with” for “The plants are cultivated in a greenhouse for 21 days, and then”, “at” for “is applied to foliage of”, “the” for “the plants at”

Row | SMILES | Effect on glyphosate-sensitive Amaranthus palmeri ([1]; application rate 385 g/ha) | Effect on glyphosate-sensitive Amaranthus palmeri ([1]; application rate 1540 g/ha) | Effect on glyphosate-resistant Amaranthus palmeri ([2]; application rate 1540 g/ha) | Effect on glyphosate-resistant Amaranthus palmeri ([2]; application rate 6160 g/ha) | Effect on glyphosate-sensitive Amaranthus palmeri ([1]; application rate 6.25 g/ha) | Effect on glyphosate-sensitive Amaranthus palmeri ([1]; application rate 12.5 g/ha) | Effect on glyphosate-sensitive Amaranthus palmeri ([1]; application rate 25 g/ha) | Effect on glyphosate-resistant Amaranthus palmeri ([2]; application rate 6.25 g/ha) | Effect on glyphosate-resistant Amaranthus palmeri ([2]; application rate 12.5 g/ha) | Effect on glyphosate-resistant Amaranthus palmeri ([2]; application rate 25 g/ha) | effect against the weeds [3] | effect against the weeds [4]
1 | O=C(O)CNCP(=O)(O)O [Glyphosate potassium salt, glyphosate potassium salt] | 100 | 100 | 20 | 70 | – | – | – | – | – | – | – | –
2 | C#CCN1C(=O)C(F)(F)Oc2cc(F)c(-n3c(=O)n(C)c(=S)n(C)c3=O)cc21 [Trifludimoxazin, trifludimoxazin] | – | – | – | – | 65 | 70 | 80 | 100 | 100 | 100 | significant effect | significant effect

— patent US12262713B2, “Method of controlling weeds” (SUMITOMO CHEMICAL COMPANY, LIMITED, priority 2018, dated 2025)
